In patent publication US20170049739A1, “PROSTACYCLIN COMPOUNDS, COMPOSITIONS AND METHODS OF USE THEREOF” (INSMED INCORPORATED, priority 2013, published 2017):
Entries after “also recorded” stand apart in the source; their conditions may differ.

Assays:
NR8383 cells = assay: NR8383 cell proliferation assay; assay type: cell-based, rat; conditions: unformulated alkyl esters, 72 hour incubation; for Effect on cell proliferation: 0.195 μM-25 μM
Procedure: Rat alveolar NR8383 cells were harvested when the monolayer was 50-90% confluent (use passage 5-11). Because the NR8383 cells include both adherent and non-adherent cells, media was transferred to a 50 mL Falcon tube. To obtain the cells remaining in the flask, 2 mL of plain media was added, and the remaining cells were scraped out of the 75 cm^2 flask with a cell scraper and added to the 50 mL tube. […] SH30071.03) […] Technologies, cat #: 15410-122)). Cell number was determined using a hemacytometer. […] Measurements and calculations were made as described above for the CHO-K1 cells.

CHO-K1 cells = assay: CHO-K1 cell proliferation assay; conditions: unformulated alkyl esters, 48 hour incubation; for Effect on cell proliferation: concentration with detectable inhibition: 0.195 μM-25 μM
Procedure: CHG-K1 cells were harvested when the cell monolayer was 50-90% confluent (use passage 4-11). Media was aspirated out of the flask, and cells were rinsed with 2 mL of F12 media. Next, 1 mL of pre-warmed (37° C.) 0.25%o trypsin-EDTA (Life Technologies, Cat#: 25300054) was added, and cells were dislodged from the flask by tapping it on the side. Complete growth media (F12 (Life Technologies, Cat #: 31765092) +10%FBS (Hyclone, Cat #: SH30071.03)+1× Pen-Strep (Life Technologies, cat #15140-122) was then added at a volume of 10 mL. Cells were eentrifuged at 250×g for 5 minutes at room temperature, and the media was aspirated. The cell pellet was resuspended in 10 ml. complete growth media. Cell number was determined using a hemacytometer. Ceils were then seeded at 2000 cells per well of a 96-well plate in 100 μL of complete growth media. The plate was incubated overnight at 37° C. and 5% CO2 in a water-jacketed incubator.
The next day, 80 μL of fresh complete media was added to each well, and CHO—K1 cells were challenged with treprostinil compound and composition treatments. The working solutions were prepared at 10× concentration, and following 2 fold serial dilutions, 20 μL aliquots were added per well to arrive at a final 1× concentration. Following a 48 hour incubation at 37° C. and 5% CO2 in a water-jacketed incubator, the inhibitory effect on cell proliferation was determined. Plates were analyzed using 20 μL of Presto Blue reagent (Life Technologies, cat #: A13262) per well. The reagent was mixed, and plates were incubated for 1 hour at 37° C. and 5% CO2 in a water-jacketed incubator. Plates were read using either a CytoFluor Series 4000 (PerSeptive BioSystems) or Synergy Neo microplate reader (BioTek) with emission λ: 590 nm and excitation λ: 560 nm.
Following a 48 hour incubation period, the inhibitory effect of the treprostinil derivative compositions on cell proliferation was determined.
CHO—K1 cells were challenged with treprostinil alkyl esters, i.e., TR compounds of Formula (A), having the following R2 groups: • C2, C3, C4, C5, C6, C8, C10 or C12 straight chain alkyl, at dosages ranging from 0.098 μM to 25 μM, Following a 48 hour incubation period, the inhibitory effect on cell proliferation was determined.
Following a 72 hour incubation period, the inhibitory effect on cell proliferation was determined. Following a 48 hour incubation period, the inhibitory effect on cell proliferation was determined.
Similarly, CHG-K1 cells were challenged with the treprostinil compositions T612 (R2═C2), T613 (R2═C8) at concentrations ranging from 1.41 μM to 180 μM.

esterase = assay: Esterase mediated conversion of treprostinil compounds to treprostinil; assay type: in vitro ADME; conditions: 37° C., up to 1 hr
Procedure: A set of studies was conducted to determine the conversion kinetics to treprostinil of linear treprostinil compounds versus various branched treprostinil compounds. 0.4 mM of linear C8-TR or branched treprostinil compounds 2-dimethyl-1-propanyl-TR, 3,3-dimethyl-1-butanyl-TR, 2-ethyl-1-butanyl-TR, 5-nonanyl-TR, or 3-pentanyl-TR (see below for structures) were incubated with 0.2 U esterase at 37° C. for 1 hour, and the conversion (% of total) was calculated at 0.25, 0.5, 0.75, or 1 hour incubation time. • C8-TR (i.e., the compound of Formula (A) wherein R2=
The conversion is relative to the C8-TR compound and conversion was measured at 1 hr. post esterase incubation, • C8-TR (i.e., the compound of Formula (A) wherein R2=
Conversion was measured at 1 hr. post esterase incubation. • 4C7-TR (i.e., the compound of Formula (A) wherein R2=

EP2 prostanoid receptor = target: T1, EP2 prostanoid receptor (Homo sapiens, UniProt P43116); assay: GloSensor cAMP assay in CHO-K1 cells co-transfected with the EP2 receptor; assay type: cell-based
T1 construct: host or cells: CHO-K1 cells, transiently co-transfected with pGloSensor-22F cAMP plasmid and pGEM-3Zf(+)
T1 sequence (P43116 whole entry): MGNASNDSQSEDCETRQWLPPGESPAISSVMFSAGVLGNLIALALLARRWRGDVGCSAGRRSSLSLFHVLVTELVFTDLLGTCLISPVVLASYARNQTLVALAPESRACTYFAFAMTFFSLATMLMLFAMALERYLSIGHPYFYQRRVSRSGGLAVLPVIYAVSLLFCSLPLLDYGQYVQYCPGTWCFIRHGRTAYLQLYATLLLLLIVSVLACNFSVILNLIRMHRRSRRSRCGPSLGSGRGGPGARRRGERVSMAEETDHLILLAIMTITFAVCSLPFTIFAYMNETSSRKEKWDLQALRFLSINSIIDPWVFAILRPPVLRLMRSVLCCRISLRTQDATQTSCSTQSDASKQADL
From the text: cAMP is a second messenger involved in signal transduction of G-protein coupled receptors (GPCRs) acting through Ga-s and Ga-i proteins. Because the treprostinil receptor is a GPCR, the assay provides an indication of whether the respective prostacyclin compound (or metabolite thereof) binds its receptor and activates the GPCR cell signaling cascade. The GloSensorTM assay harnesses a genetically modified form of firefly luciferase into which a cAMP-binding protein moiety has been inserted. Upon binding of cAMP, a conformational change is induced leading to increased light output. The EP2 prostanoid receptor was co-transfected with the GloSensorTM plasmid (Promega) into CHG-K1 cells as follows. CHO-K1 cells were harvested when the monoloayer was at 50-90% confluence. First, cells were washed with 5 mL PBS. […] The media was aspirated, and the cell pellet was resuspended in 10 mL of growth media. Cell number was determined using a hemacytometer. Each well of a culture treated 96 […] bottom plate (Costar, Cat #: 3917) was seeded with 1×10^4 cells per 100 μL antibiotic-free growth media. […] For small scale transfections of up to 20 wells, the pGLoSensor-22F cAMP plasmid (Promega, Cat #: E2301) (2 μg): (EP2) (10 ng) (Origene, Cat #: SC126558) : pGEM-3Zf(+) (10 ng) (Promega, Cat #: P2271) ratio was diluted to a final concentration of 12.6 ng/μL (total plasmid) in Opti-MEM I reduced-serum medium (Life Technologies, Cat #: 1985062). Next, 6 μL of FuGENE HD transfection reagent (Promega, Cat #: E2311) was added to 160 μL of diluted plasmid and mixed carefully by gentle pipetting. The complex was incubated at room temperature for 0 to 10 minutes, and then 8 μL of the complex was added per well of a 96 well white assay plate (Costar, Cat #: 3917) and gently mixed without disturbing the cell monolayer. […] Following incubation, cells were treated and analyzed. For larger scale transfections, the aforementioned steps were scaled up accordingly, and cells were frozen following the last incubation. In order to prepare frozen transfected CHO-K1 cells, the media was aspirated from culture flasks and cells were rinsed with 5 mL PBS. […] Cell number was determined using a hemacytometer. The media was aspirated, and the cell pellet was resuspended in freezing media (Millipore, cat #: S-002-5F) at 2.5×10^6 cells/vial. Transfected cells were incubated overnight at -80° C. before transfer to liquid nitrogen for long term storage. […] In preparation for cAMP measurement, the cells were equilibrated with the GloSensor cAMP reagent prior to treatment. For equilibration, the medium was carefully removed from the individual well. Next, 100 μL of equilibration medium (6% v/v of Glosensor Reagent stock solution (Promega, Cat #: E291), 10% FBS (Hyclone, Cat #: SH30071.03) and 88% CO2 independent medium (Life Technologies, Cat #: 18045088)) was added per well of the 96-well plate, and added to the side of each well. The plate was then incubated for 2 hours at room temperature. A first pre-read measurement was taken using a microplate reader (MicroLumat Plus). Plates were incubated for an additional 10 minutes at room temperature, followed by a second pre-read measurement. […] Following treatment, each plate was read every 5 minutes for the duration of the assay using a microplate reader (MicroLumat Plus). In order to determine the fold change in cAMP relative to the control, the transfection efficiency was first determined by dividing the second pre-read measurement by the average of the corresponding pre-read measurements. Next, the normalized relative light units (RLUs) of the samples were determined by dividing the plate read measurement by the transfection efficiency. The fold change in cAMP relative to the control was then determined by dividing the normalized RLU of the samples by the normalized RLU of the control. […] Results from the three highest concentrations are provided at FIG. 3A (10 μM), FIG. 3B (1 μM) and FIG. 3C (0.1 μM). […]

[1] = Particle size characterization of treprostinil compositions (QELS); assay type: physicochemical; conditions: particles of compositions comprising the alkyl ester (FIG. 2)
Procedure: All particle size measurements were performed using a Wyatt Technology Mobius™ Zeta Potential/ Particle Sizing Instrument in Quasi-elastic light scattering (QELS) mode. Composition aiiquots were diluted 10-fold in pre-filtered (0.02 μm pore filter) ultrapure of deionized H2O. Light scattering data was collected and converted into particle size and size distribution using Dynamics® v. […] Reported average particle size diameter is based on the cumulants model, which mathematically fits particle diffusion constants (determined by the raw scattering intensities of particles in a suspension) to obtain the particle size mean and a distribution of particle sizes around the mean diameter.
Particle uniformity was determined using the software-calculated polydispersity (% PD). Polydispersity is defined as the standard deviation of the particle size distribution from the mean particle size value. % PD normalizes the polydispersity to the mean diameter by dividing by the mean size and multiplylng by 100. These parameters indicate whether a particle suspension has one or more size populations of particles (monomodal versus multimodal). […]
Dynamics® polydispersity parameter represents a monodisperse population of particles if % PD≦15. A calculated % PD≧57% represents a polydisperse population of particles.

| Molecule | Effect on cell proliferation: concentration with detectable inhibition (CHO-K1 cells) | esterase mediated conversion rate compared with other compounds (esterase) | Effect on cell proliferation (NR8383 cells) | other results |
| --- | --- | --- | --- | --- |
| CCCCCCCCOC(=O)COc1cccc2c1C[C@H]1C[C@@H](O)[C@H](CC[C@@H](O)CCCCC)[C@H]1C2 [C8-TR, treprostinil octyl ester] | 25 µM | – | – | inhibition of cell proliferation at the highest concentration (NR8383 cells): showed some inhibition of cell proliferation; inhibition of cell proliferation at the highest concentration (CHO-K1 cells): showed inhibition of cell proliferation |
| CCCCC[C@H](O)CC[C@@H]1[C@H]2Cc3cccc(OCC(=O)OC(CCCC)CCCC)c3C[C@H]2C[C@H]1O [5C9-TR, 5-nonanyl treprostinil] | – | slower conversion rate than the linear compound C8-TR | – | esterase mediated conversion rate compared with other compounds (esterase; listed as 5-nonanyl-TR): slower conversion rate than linear C8-TR; change of potency with incubation time / release profile (EP2 prostanoid receptor; dose response curves at 0.5 to 8 hr incubation): increases with incubation time; also recorded: delayed release profile; ranking of activity of the treprostinil compounds (EP2 prostanoid receptor; unformulated compounds, 10 μM and 5 μM, FIG. 21): C12-TR>C14-TR>5-nonanyl-TR>C16-TR |
| CCCCCCOC(=O)COc1cccc2c1C[C@H]1C[C@@H](O)[C@H](CC[C@@H](O)CCCCC)[C@H]1C2 [C6-TR] | No detectable cell inhibition | – | No detectable cell inhibition | – |
| CCCCCC(O)CCC1C(O)CC2Cc3c(cccc3OCC(=O)OC(CCC)CCCC)CC21 (stereo not shown) [4C8-TR] | – | slower conversion rate than the linear compound C8-TR; also recorded: slower conversion rate than the symmetrical compounds | – | – |
| CCCCC[C@H](O)CC[C@@H]1[C@H]2Cc3cccc(OCC(=O)OC(CCC)CCC)c3C[C@H]2C[C@H]1O [4C7-TR] | – | slower conversion rate than the linear compound C8-TR | – | – |
| CCCCC[C@H](O)CC[C@@H]1[C@H]2Cc3cccc(OCC(=O)OCC)c3C[C@H]2C[C@H]1O [C2-TR, treprostinil ethyl ester] | No detectable cell inhibition | – | No detectable cell inhibition | – |
| CCCCC[C@H](O)CC[C@@H]1[C@H]2Cc3cccc(OCC(=O)OCCC)c3C[C@H]2C[C@H]1O [C3-TR] | No detectable cell inhibition | – | No detectable cell inhibition | – |
| treprostinil decyl ester [C10-TR] | – | – | – | polydispersity (% PD) [1]: around 15 % PD; duration of cAMP levels (EP2 prostanoid receptor; 5 μM, FIG. 4 and FIG. 5): sustained significantly longer than free treprostinil; cAMP levels compared with free treprostinil (EP2 prostanoid receptor; 10 μM, FIG. 3A): equivalent to free treprostinil; time for which cAMP level was sustained (EP2 prostanoid receptor; 10 μM, FIG. 3A): at least 6 hours; cAMP response compared with free treprostinil (EP2 prostanoid receptor; compositions, 5 μM, FIG. 4): greater than or equivalent to the response induced by free treprostinil; cAMP response levels of unformulated compounds (EP2 prostanoid receptor; unformulated alkyl esters, 5 μM, FIG. 5): equivalent to free treprostinil |
| CCCCC[C@H](O)CC[C@@H]1[C@H]2Cc3cccc(OCC(=O)OCCCC)c3C[C@H]2C[C@H]1O [C4-TR] | No detectable cell inhibition | – | No detectable cell inhibition | – |
| CCCCCC[C@@H](C)OC(=O)COc1cccc2c1C[C@H]1C[C@@H](O)[C@H](CC[C@@H](O)CCCCC)[C@H]1C2 [(R)-2C8-TR] | – | no significant difference between the conversion rates of R and S isomers | – | – |
| CCCCCC[C@H](C)OC(=O)COc1cccc2c1C[C@H]1C[C@@H](O)[C@H](CC[C@@H](O)CCCCC)[C@H]1C2 [(S)-2C8-TR] | – | no significant difference between the conversion rates of R and S isomers | – | – |
